# Results taken from patent US11052118B2, “Enhanced stem cell composition” (Fate Therapeutics, Inc., priority 2011, dated 2021).
# Key:
# [1] = test system: CXCR4 mRNA in cord blood derived CD34+ cells; assay: CXCR4 qPCR using the Applied Biosystems StepOnePlus, cord blood CD34+ cells; format: cell-based, human
# Procedure: (§1) Real-time PCR transcript quantitation from ex vivo treated cord CD34^+ cells (Stem Cell Technologies, Vancouver, BC, Canada) and mobilized peripheral blood CD34^+ cells (All Cells, LLC, Emoryville, Calif., USA) was performed using the Applied Biosystems StepOne Plus system (Life Technologies Corporation, Carlsbad, Calif., USA) (see FIG. 3). […] After treatment, cells were washed with SFEM and centrifuged at 300 g for 10 minutes.
# (§2) Total RNA was then isolated from treated cells using Pico Pure RNA Isolation Kit (Molecular Devices, Sunnyvale, Calif., USA). Complimentary DNA (cDNA) was reverse transcribed from 50 ng of isolated total RNA using the High-Capacity cDNA Reverse Transcription Kit (Life Technologies).
# (§3) Real-Time PCR analysis was run on the cDNA samples in duplicate. The reaction mix contained 1 μL Gene Specific Taqman Assay (20λ) and 10 μL Gene Expression Master Mix (Life Technologies) with the remaining volume of 9 μL contained 10 ng cDNA and sterile diH2O.
# (§4) CXCR4 results (assay from Table 1) were analyzed using Applied Biosystems StepOne Software v2.1 Analysis software. Average Cts were calculated from the sample replicates and delta-delta Cts (ΔΔCt) were calculated using GAPDH results (assay from Table 1) as a reference gene against a vehicle only sample. […] Error bars depict +/− the Standard Deviation (SD) of the replicate measurements (See FIGS. 1-3, 5, and 6).
# [2] = test system: CXCR4 mRNA in human umbilical cord blood derived CD34+ cells; assay: CXCR4 qPCR using the Fluidigm platform; format: cell-based; conditions: 10 μM single agent in SFEM, 4 h, 37° C., compared to DMSO treated cells
# Procedure: Real-time PCR transcript quantitation of gene expression from ex vivo treated human umbilical cord blood derived CD34^+ cells (Stem Cell Technologies, Vancouver, BC, Canada) was performed using the BioMark Dynamic Array microfluidics system (Fluidigm Corporation, South San Francisco, Calif., USA).
# CD34^+ cells derived from cord blood or mobilized peripheral blood were treated in Serum-Free Expansion Medium (SFEM; e.g., StemSpan® from StemCell Technologies, Inc.) for four hours at 37° C., 5% CO2 with 10 uM prostaglandin pathway agonist alone or in combination with 10 uM of a glucocorticoid. Prostaglandin pathway agonists included 16,16-dimethyl PGE2 (dmPGE2), 20-ethyl PGE2 (ePGE2), 15(S)-15-methyl PGE2 (mPGE2), and PGE2. Glucocorticoids included hydrocortisone, dexamethasone, medrysone, alclometasone, or triamcinalone. After treatment, cells were washed with SFEM and centrifuged at 300 g for 10 minutes.
# Total RNA was isolated then isolated from treated cells using Pico Pure RNA Isolation Kit (Molecular Devices, Sunnyvale, Calif., USA). […]
# Results were analyzed using BioMark Real-Time PCR Analysis software. Average Cts were calculated from the sample replicates and delta-delta Cts (ΔΔCt) were calculated using the mean of 3 reference genes (GAPDH, HPRT1, QARS) against a vehicle only sample. […]
# [3] = test system: CXCR4 mRNA in mobilized peripheral blood CD34+ cells; assay: CXCR4 qPCR using the Applied Biosystems StepOnePlus, mobilized peripheral blood CD34+ cells; format: cell-based, human
# Procedure: as §1, §2, §3, §4
# [4] = test system: CXCR4 surface protein on CD34+ cells from human bone marrow; assay: CXCR4 surface protein expression by flow cytometry, bone marrow CD34+ cells; format: cell-based; conditions: BM CD34+ cells, 10 μM each agent, 4 hours at 37° C. in SFEM, then 2 hours in SFEM
# [5] = test system: CD34+ cells migrating towards SDF1; assay: SDF-1 transwell migration assay; format: cell-based, human; conditions: cells treated 4 hours at 37° C. with 10 μM, 50 ng/mL SDF1 in lower chamber, 2.5 hours; listed as dmPGE2
# Procedure: Transwell migration assays were performed using 96-well chemotaxis chambers, […] pore size polycarbonate membrane (Corning Inc., Corning, N.Y.) in accordance with manufacturer's instructions. Briefly, CD34^+ cells were then treated for 4 hours at 37° C. with 16,16-dimethyl PGE2 (dmPGE2), dmPGE2 and glucocorticoid, or DMSO control at a concentration of 10 μM in StemSpan® media (Stem Cell Technology, Vancouver, Canada). The cells were then washed by centrifugation (300×g for 10 minutes) and resuspended in transwell assay buffer (Phenol Red Free RPMI media (Mediatech), 0.5% lipid free BSA (Sigma-Aldrich) at a concentration of 40,000-60,000 cells/75 μl.
# To test the duration of the treatment effects, one portion of treated cells was washed by centrifugation (300×g for 10 minutes) and resuspended in StemSpan® media for 4 hours at 37° C. without dmPGE2, glucocorticoids, or DMSO and then washed again by centrifugation (300×g for 10 minutes) and resuspended in transwell assay buffer (Phenol Red Free RPMI media (Mediatech), 0.5% lipid free BSA (Sigma-Aldrich) at a concentration of 40,000-60,000 cells/75 μl.
# Seventy-five μl of cell suspension was added to the upper chamber of the plate, while 235 μl of transwell assay media containing 0 or 50 ng/ml SDF1α (R&D system, Minneapolis, Minn.) was added to the bottom well. […]
structure (smiles),measurement,setting,value
"CCCCC(C)(C)[C@H](O)/C=C/[C@H]1[C@H](O)CC(=O)[C@@H]1C/C=C\CCCC(=O)O [16,16-dimethyl PGE2]",CXCR4 RNA expression,"[1]; cord blood CD34+ cells, 10 μM, 2 and 4 hours at 37° C. in SFEM, compared to DMSO treated cells",increase
same,increase in CXCR4 mRNA expression,"[1]; cord blood derived CD34+ cells, 4 hour treatment in SFEM, 10 μM each agent, against vehicle only sample",22 fold
same,increase in CXCR4 mRNA expression,[2],22 fold
same,increase in CXCR4 mRNA expression,"[3]; CD34+ cells from mobilized peripheral blood, 4 hour treatment in SFEM, 10 μM each agent, against vehicle only sample",27 fold
same,CXCR4 RNA expression,"[3]; mPB CD34+ cells, 10 μM, 2 and 4 hours at 37° C. in SFEM, compared to DMSO treated cells",increase
same,increase in the level of CXCR4 protein expression,[4],12 fold
same,"SDF1-driven cell migration (% of cells added), words",[5],increased SDF1-driven cell migration compared to the DMSO control
